Test results: ChEMBL document CHEMBL3585247, “In Vitro Inhibitory Effects of 8-O-Demethylmaritidine and Undulatine on Acetylcholinesterase and Their Predicted Penetration across the Blood-Brain Barrier” (J Nat Prod, 2015)

What was measured:
[1] = Permeability of the compound by PAMPA-BBB assay
[2] = target: Acetylcholinesterase (Electrophorus electricus, UniProt O42275); assay: Inhibition of electric eel AChE using acetylthiocholine as substrate assessed as concentration of 5-thio-2-nitrobenzoic acid ion formed by spectrophotometric/Ellman's method
Chain of Acetylcholinesterase (O42275 whole entry): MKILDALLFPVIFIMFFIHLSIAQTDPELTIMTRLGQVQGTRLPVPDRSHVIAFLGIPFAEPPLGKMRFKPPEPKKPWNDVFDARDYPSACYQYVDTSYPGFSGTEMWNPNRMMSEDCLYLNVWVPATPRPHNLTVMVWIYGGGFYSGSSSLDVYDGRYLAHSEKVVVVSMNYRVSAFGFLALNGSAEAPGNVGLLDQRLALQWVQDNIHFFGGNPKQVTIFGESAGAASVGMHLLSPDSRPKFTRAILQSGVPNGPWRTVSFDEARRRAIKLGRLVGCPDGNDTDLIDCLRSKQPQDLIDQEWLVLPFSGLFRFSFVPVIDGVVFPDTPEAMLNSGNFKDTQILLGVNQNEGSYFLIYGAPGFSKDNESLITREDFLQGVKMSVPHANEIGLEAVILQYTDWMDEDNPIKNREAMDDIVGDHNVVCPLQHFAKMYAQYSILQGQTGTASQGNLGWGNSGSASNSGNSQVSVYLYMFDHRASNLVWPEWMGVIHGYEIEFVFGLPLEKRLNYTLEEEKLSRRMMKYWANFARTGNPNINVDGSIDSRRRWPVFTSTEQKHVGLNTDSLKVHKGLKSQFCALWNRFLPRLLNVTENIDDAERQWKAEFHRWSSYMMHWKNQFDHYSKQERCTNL

Row | SMILES | Papp [1] [×10⁻⁶ cm/s] | IC50 [2] [µM]
1 | COc1c2c(cc3c1[C@@]14CCN(C3)[C@@H]1C[C@@H](OC)[C@@H]1O[C@@H]14)OCO2 | 18.3 | 7.4
2 | COc1cc2c(cc1O)CN1CC[C@@]23C=CC(O)C[C@H]13 (some centres undefined) | 0.7 | 57.4
